Results published in US6962920B2, “Pyrimidine derivatives and methods of making and using these derivatives” (Duquesne University of the Holy Ghost, priority 1992, dated 2005).

Assays:
[1] = tested on: HOP-62; assay type: cell-based; conditions: Homo sapiens; HOP-62, Non-Small Cell Lung Cancer
[2] = tested on: MCF7/ADR-RES; experiment: NCI in vitro anti-cancer activity, Breast Cancer; assay type: cell-based; conditions: Homo sapiens
[3] = tested on: CCRF-CEM cells; experiment: Growth inhibition of CCRF-CEM human leukemia cells, continuous exposure; assay type: cell-based; conditions: Table 8, continuous (0-120 hours) exposure, read-out: Growth inhibition EC50, CCRF-CEM
[4] = tested on: FaDu; experiment: Growth inhibition of FaDu human squamous carcinoma cell line; assay type: cell-based; conditions: Homo sapiens, FaDu; Table 9; continuous (120 hours) exposure; read-out: Growth inhibition EC50, FaDu
[5] = tested on: HCC-2998; experiment: NCI in vitro anti-cancer activity, Colon Cancer; assay type: cell-based; conditions: Homo sapiens; HCC-2998, Colon Cancer
[6] = molecular target: T1, CCRF-CEM human leukemia cell folylpolyglutamate synthetase (Homo sapiens, UniProt Q05932); experiment: Substrate activity for CCRF-CEM folylpolyglutamate synthetase; assay type: biochemical; conditions: Table 10
T1 construct: substrates for human leukemia cell CCRF-CEM folylpolyglutamate synthetase; endogenous in cells; host or cells: CCRF-CEM human leukemia cells
T1 sequence (Q05932 43-587): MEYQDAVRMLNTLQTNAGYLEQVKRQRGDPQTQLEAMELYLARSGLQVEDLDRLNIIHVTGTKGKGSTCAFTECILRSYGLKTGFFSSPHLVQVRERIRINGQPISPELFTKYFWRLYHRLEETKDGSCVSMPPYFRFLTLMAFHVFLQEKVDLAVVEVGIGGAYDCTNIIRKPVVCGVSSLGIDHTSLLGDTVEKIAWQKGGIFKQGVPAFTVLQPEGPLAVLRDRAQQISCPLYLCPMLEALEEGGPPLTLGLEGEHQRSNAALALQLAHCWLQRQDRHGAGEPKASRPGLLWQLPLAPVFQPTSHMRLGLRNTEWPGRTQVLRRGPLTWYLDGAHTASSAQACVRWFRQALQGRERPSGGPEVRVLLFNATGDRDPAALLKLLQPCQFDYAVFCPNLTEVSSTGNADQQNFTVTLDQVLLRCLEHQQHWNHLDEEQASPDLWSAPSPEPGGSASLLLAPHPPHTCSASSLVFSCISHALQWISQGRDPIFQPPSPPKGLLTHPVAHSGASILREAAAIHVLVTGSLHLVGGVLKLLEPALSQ
Procedure: Aminopterin is a classical 2,4-diamino antifolate substrate.
Compounds 33 and 34 were also evaluated for their substrate activity in CCRF-CEM human leukemia folylpolyglutamate synthetase; the compounds were compared against aminopterin.

EC50 [3]: 12.8 ± 2.2 nM | EC50 [4]: 22 ± 4 nM | Vmax(rel) ([6]; relative to aminopterin): 0.72 ± 0.07 | Km ([6]; substrate for FPGS): < 1 µM
Structure (SMILES): Nc1nc(N)c2c(CNc3ccc(C(=O)N[C@@H](CCC(=O)O)C(=O)O)cc3)c[nH]c2n1 [Compound 9]
GI50 [1]: < 10 nM | GI50 [2]: < 10 nM | GI50 [5]: < 10 nM
